{
  "source": "paper PMC6838683",
  "about": "“Discovery of Human Signaling Systems: Pairing Peptides to G Protein-Coupled Receptors” (Cell, 2019)",
  "key": {"[1]": {"biological_target": "GPR55 (Homo sapiens, UniProt Q9Y2T6)", "sequence (Q9Y2T6 2-319 limits assumed)": "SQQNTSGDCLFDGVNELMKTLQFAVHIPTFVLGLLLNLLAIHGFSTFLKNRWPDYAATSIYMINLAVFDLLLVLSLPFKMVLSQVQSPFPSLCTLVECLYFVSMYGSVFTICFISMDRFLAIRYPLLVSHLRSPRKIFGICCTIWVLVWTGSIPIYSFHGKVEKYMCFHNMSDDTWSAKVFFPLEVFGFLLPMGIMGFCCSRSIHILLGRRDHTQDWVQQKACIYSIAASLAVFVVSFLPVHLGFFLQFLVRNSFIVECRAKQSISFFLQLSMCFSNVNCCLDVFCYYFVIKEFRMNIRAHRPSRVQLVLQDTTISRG", "test": "Repeat of proposed literature pairing (mass redistribution and/or internalization)", "format": "cell-based", "set-up": "hIL-2Ra signal peptide (N); expressed in transfected cells", "conditions": "target GPR55", "description": "(§1) DMR assays provide a single integrated readout of ligand-dependent cellular response, utilizing an optical biosensor in specialized microplates to detect wavelength shifts of reflected light as it passes through the biosensor and the lower portion of the cell (∼150-200 nm). As a signal pathway agnostic approach, DMR assays are well-suited to the study of GPCRs ([Fang et al., 2008], [Schröder et al., 2011]). The mass redistribution response (Δ picometer (pm)) likely reflects a number of intracellular events, including cytoskeletal rearrangement, protein trafficking and receptor internalization. […] After 3-5 min baseline recordings, peptides (10 μM) were added in duplicate wells using an electronic 384-channel Viaflo pipette (Integra Biosciences, Switzerland) and DMR responses were measured for 60 min at 22°C. […] Real-time data were processed using the BT to column converter MS-Excel macro (Corning) and analyzed in GraphPad Prism 7.0. DMR recordings in peptide screening experiments were buffer and solvent corrected and the area under the curve (AUC) was quantified. […]\n(§2) A TR-FRET real-time internalization assay was used to examine peptide-dependent changes in orphan receptor localization as described previously ([Foster and Bräuner-Osborne, 2018]). […] For peptide screening analysis (both DMR and internalization assays), we calculated the area under the curve from the real-time traces. […]"}, "[2]": {"tested_on": "GPR3", "conditions": "target GPR3"}, "[3]": {"tested_on": "BRS3", "test": "Repeat of proposed literature pairing (mass redistribution and/or internalization)", "format": "cell-based, human", "conditions": "target BRS3"}, "[4]": {"tested_on": "GPR68", "test": "Repeat of proposed literature pairing (mass redistribution and/or internalization)", "format": "cell-based, human", "conditions": "target GPR68"}, "[5]": {"tested_on": "NPY4R", "test": "β-arrestin recruitment (Tango), known peptide receptors", "format": "cell-based, human", "conditions": "endogenous ligand(s) included in peptide library", "description": "Supplement mmc6.xlsx, sheet \"Peptide GPCR controls\" | column: Confirmed?"}, "[6]": {"biological_target": "human GPCRs", "set-up": "method as in Guide to Pharmacology database", "conditions": "max reported value, ref Guide to Pharmacology database, cited from earlier work", "description": "Supplement mmc1.xlsx, sheet \"HumanGPCRLigands\" | column: pKi_value; pKd_value; pEC50_value; pIC50_value"}, "[7]": {"tested_on": "PRRP", "test": "β-arrestin recruitment (Tango), known peptide receptors", "format": "cell-based, human", "description": "Supplement mmc6.xlsx, sheet \"Peptide GPCR controls\" | column: Confirmed?; Notes"}, "[8]": {"biological_target": "T1, NPSR (Homo sapiens, UniProt Q6W5P4)", "T1 construct": "host or cells: HTLA cells (HEK293-derived)", "T1 sequence (Q6W5P4 whole entry)": "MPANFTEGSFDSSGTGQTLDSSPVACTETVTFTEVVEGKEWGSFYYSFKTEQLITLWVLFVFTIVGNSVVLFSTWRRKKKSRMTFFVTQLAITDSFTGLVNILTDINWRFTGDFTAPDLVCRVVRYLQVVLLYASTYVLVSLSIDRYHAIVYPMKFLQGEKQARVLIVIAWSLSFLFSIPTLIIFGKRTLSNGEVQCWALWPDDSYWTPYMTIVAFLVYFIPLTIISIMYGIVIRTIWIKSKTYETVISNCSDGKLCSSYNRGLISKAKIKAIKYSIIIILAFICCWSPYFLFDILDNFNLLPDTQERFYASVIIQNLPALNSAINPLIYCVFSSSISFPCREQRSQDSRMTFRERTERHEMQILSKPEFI", "test": "β-arrestin recruitment (Tango), known peptide receptors", "format": "cell-based", "conditions": "mean, n = 3", "description": "(§3) Supplement mmc7.xlsx, sheet \"Peptide validation data\" | column: Emax; pEC50"}, "[9]": {"biological_target": "T2, OPRD1 (Homo sapiens, UniProt P41143)", "T2 construct": "host or cells: HTLA cells (HEK293-derived)", "T2 sequence (P41143 whole entry)": "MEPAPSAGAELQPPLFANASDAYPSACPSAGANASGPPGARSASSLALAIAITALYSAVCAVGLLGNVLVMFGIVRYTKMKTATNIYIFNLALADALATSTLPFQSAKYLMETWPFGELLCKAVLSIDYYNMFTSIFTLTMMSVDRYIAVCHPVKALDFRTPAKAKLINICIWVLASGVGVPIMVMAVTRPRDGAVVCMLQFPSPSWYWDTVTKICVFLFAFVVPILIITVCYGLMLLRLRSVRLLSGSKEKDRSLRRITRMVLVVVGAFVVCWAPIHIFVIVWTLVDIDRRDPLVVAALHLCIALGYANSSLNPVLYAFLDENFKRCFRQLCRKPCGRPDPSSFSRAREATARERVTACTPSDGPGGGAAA", "test": "β-arrestin recruitment (Tango), known peptide receptors", "format": "cell-based", "conditions": "mean, n = 3", "description": "as §3"}, "[10]": {"biological_target": "T3, GPR1 (Homo sapiens, UniProt P46091)", "T3 sequence (P46091 1-355)": "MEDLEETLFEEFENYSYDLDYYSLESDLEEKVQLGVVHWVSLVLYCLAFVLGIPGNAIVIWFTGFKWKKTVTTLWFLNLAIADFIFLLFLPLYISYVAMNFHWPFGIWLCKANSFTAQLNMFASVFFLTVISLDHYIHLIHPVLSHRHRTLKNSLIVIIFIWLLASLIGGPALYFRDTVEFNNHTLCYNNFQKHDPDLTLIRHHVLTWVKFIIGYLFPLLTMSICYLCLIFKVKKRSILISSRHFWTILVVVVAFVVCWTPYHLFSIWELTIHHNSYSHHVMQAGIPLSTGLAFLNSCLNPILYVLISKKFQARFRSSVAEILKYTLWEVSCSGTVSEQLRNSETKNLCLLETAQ", "test": "Repeat of proposed literature pairing (mass redistribution and/or internalization)", "format": "cell-based", "set-up": "host or cells: HTLA cells (HEK293-derived)", "description": "as §1, §2"}, "[11]": {"biological_target": "T4, MRGPRX2 (Homo sapiens, UniProt Q96LB1)", "T4 construct": "host or cells: HTLA cells (HEK293-derived)", "T4 sequence (Q96LB1 1-330)": "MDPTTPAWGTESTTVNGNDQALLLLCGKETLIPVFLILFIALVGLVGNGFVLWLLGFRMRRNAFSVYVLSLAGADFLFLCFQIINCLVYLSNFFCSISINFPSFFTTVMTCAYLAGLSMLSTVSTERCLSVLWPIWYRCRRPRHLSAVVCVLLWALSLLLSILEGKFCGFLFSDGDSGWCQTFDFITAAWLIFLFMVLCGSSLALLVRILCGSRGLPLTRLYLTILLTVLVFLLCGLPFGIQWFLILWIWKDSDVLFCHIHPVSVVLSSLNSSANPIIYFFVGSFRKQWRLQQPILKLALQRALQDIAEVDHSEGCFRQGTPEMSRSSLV", "test": "Repeat of proposed literature pairing (mass redistribution and/or internalization)", "format": "cell-based", "conditions": "repeat of literature pairing across multiple assays; cleavage variants CST-14 and SRIF-28 tested; Figure S7A", "description": "as §1, §2"}, "[12]": {"conditions": "reported ligand tested on receptor-expressing cell line"}, "[13]": {"conditions": "receptor CMKLR1 (cml1_human, Q99788)"}},
  "note": "Like-named read-outs stand apart in the source and are kept apart here.",
  "data": [
    {"compound": "Cc1c(C(=O)NN2CCCCC2)nn(-c2ccc(Cl)cc2Cl)c1-c1ccc(I)cc1", "note": "[AM251]", "values": [
      {"measurement": "Comment (response in DMR / internalization assays)", "setting": "[1]", "value": "Robust response"},
      {"measurement": "Active in DMR/internalization", "setting": "[1]; [12]", "value": "Yes"}
    ]},
    {"compound": "[Cl-].c1ccc2c(c1)[I+]c1ccccc1-2", "note": "[Diphenyleneiodonium chloride (DPI)]", "values": [
      {"measurement": "Comment (response in DMR / internalization assays)", "setting": "[2]", "value": "Robust response in DMR, no response in internalization assay"},
      {"measurement": "Active in DMR/internalization", "setting": "[2]; [12]", "value": "Yes (DMR)"}
    ]},
    {"compound": "O[C@@](Cc1ncc(CC2(C(F)(F)F)CC2)[nH]1)(c1ccc(-n2cccn2)cc1)C(F)(F)F", "note": "[MK-5046]", "values": [
      {"measurement": "Comment (response in DMR / internalization assays)", "setting": "[3]", "value": "Robust response"},
      {"measurement": "Active in DMR/internalization", "setting": "[3]; [12]", "value": "Yes"}
    ]},
    {"compound": "Nc1nc(NCc2ccccc2)nc(-c2ccccc2CO)n1", "note": "[ZINC67740571 (ogerin)]", "values": [
      {"measurement": "Comment (response in DMR / internalization assays)", "setting": "[4]", "value": "Robust response in DMR, no response in internalization assay"},
      {"measurement": "Active in DMR/internalization", "setting": "[4]; [12]", "value": "Yes (DMR)"}
    ]},
    {"compound": "Pancreatic hormone (PH)", "values": [
      {"measurement": "Confirmed? (confirmation of b-arrestin recruitment)", "setting": "[5]", "value": "No"}
    ]},
    {"compound": "Peptide YY (PYY)", "values": [
      {"measurement": "Confirmed? (confirmation of b-arrestin recruitment)", "setting": "[5]", "value": "No"}
    ]},
    {"compound": "PrRP-31", "values": [
      {"measurement": "pKi_value", "setting": "[6]; receptor PRLHR (prlhr_human, P49683)", "value": 9.2},
      {"measurement": "Confirmed? (confirmation of b-arrestin recruitment)", "setting": "[7]; endogenous ligand(s) included in peptide library, Tango", "value": "Yes"},
      {"measurement": "Notes (b-arrestin recruitment response)", "setting": "[7]; screen and validation", "value": "No response in screen, small response in validation"}
    ]},
    {"compound": "SFRNGVGSGVKKTSF [Peptide 107]", "values": [
      {"measurement": "Emax, Tango (fold over basal)", "setting": "[8]", "value": 2.2, "unit": "fold over basal"},
      {"measurement": "pEC50, Tango (fold over basal)", "setting": "[8]", "value": 6.03}
    ]},
    {"compound": "VLDQLSA [Peptide 25]", "values": [
      {"measurement": "Emax, Tango (fold over basal)", "setting": "[9]", "value": 5.0, "unit": "fold over basal"},
      {"measurement": "pEC50, Tango (fold over basal)", "setting": "[9]", "value": 5.58}
    ]},
    {"compound": "chemerin [reference compound]", "values": [
      {"measurement": "pEC50_value", "setting": "[6]; [13]", "value": 8.5},
      {"measurement": "pKd_value", "setting": "[6]; [13]", "value": 8.3},
      {"measurement": "Peptide pairing for orphan receptor GPR1 (confirmed/unconfirmed)", "setting": "[10]; repeat of literature pairing", "value": "Confirmed peptide pairings for orphans"},
      {"measurement": "receptor-dependent activation by proposed ligand, GPR1", "setting": "[10]; repeat of literature pairing across multiple assays, Figure S7A, Tables S5 and S7", "value": "selective receptor-dependent activation"}
    ]},
    {"compound": "cortistatin", "values": [
      {"measurement": "receptor-dependent activation by proposed ligand, MRGPRX2", "setting": "[11]", "value": "selective receptor-dependent activation"}
    ]},
    {"compound": "somatostatin [reference compound]", "values": [
      {"measurement": "receptor-dependent activation by proposed ligand, MRGPRX2", "setting": "[11]", "value": "selective receptor-dependent activation"},
      {"measurement": "pKi_value", "setting": "[6]; receptor SSTR1 (ssr1_human, P30872)", "value": 9.4},
      {"measurement": "pKi_value", "setting": "[6]; receptor SSTR2 (ssr2_human, P30874)", "value": 10.2},
      {"measurement": "pKi_value", "setting": "[6]; receptor SSTR3 (ssr3_human, P32745)", "value": 9.9},
      {"measurement": "pKi_value", "setting": "[6]; receptor SSTR4 (ssr4_human, P31391)", "value": 9.2},
      {"measurement": "pKi_value", "setting": "[6]; receptor SSTR5 (ssr5_human, P35346)", "value": 10.3}
    ]}
  ]
}
